{"source": "patent US5413990A", "about": "“N-terminus modified analogs of LHRH” (Tap Pharmaceuticals Inc., priority 1993, dated 1995)", "target": "T1, LHRH (Rattus norvegicus, UniProt P30969)", "T1 construct": "evaluated in an in vitro test for LHRH antagonist potency (pA2); endogenous in cells; host or cells: pituitary cells (rat, from my own knowledge of the cited method)", "T1 sequence (P30969 1-327)": "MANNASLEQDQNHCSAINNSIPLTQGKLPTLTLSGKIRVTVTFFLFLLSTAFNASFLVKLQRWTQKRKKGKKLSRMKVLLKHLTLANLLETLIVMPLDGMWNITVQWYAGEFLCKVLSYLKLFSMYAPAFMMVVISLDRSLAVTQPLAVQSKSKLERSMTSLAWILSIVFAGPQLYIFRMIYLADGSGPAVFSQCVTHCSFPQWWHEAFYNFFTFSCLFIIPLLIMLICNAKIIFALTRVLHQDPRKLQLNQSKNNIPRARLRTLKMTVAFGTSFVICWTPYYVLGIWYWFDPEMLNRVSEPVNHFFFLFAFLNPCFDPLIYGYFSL", "test": "in vitro test for LHRH antagonist potency (pA2)", "type": "cell-based", "settings": "negative logarithm of the antagonist concentration required to shift the response curve produced by the agonist leuprolide to two-fold higher concentration", "protocol": "Representative compounds of the present invention were evaluated in an in vitro test for LHRH antagonist potency (pA2). The test employed the method detailed in F. Haviv, et al. J. Med. Chem., 32:2340-2344 (1989). The values of pA2 are the negative logarithms of the concentration of the particular antagonist test compound required to shift the response curve produced by the agonist leuprolide to two-fold higher concentration. (Leuprolide is the LHRH agonist having the structure 5-oxo-Pro^1 -His^2 -Trp^3 -Ser^4 -Tyr^5 -D-Leu^6 -Leu^7 -Arg^8 -Pro^9 -NHEt and is disclosed and claimed in U.S. Pat. No. 4,005,063.) Typically pA2 values of 9.5 or greater are indicative of good LHRH antagonist potency, with values of 10.0 or greater being preferred.", "note": "Numbered stars: 1 amine (or outer) side, 2 acyl side, 3 side chain; on linkers, the order of the positions; unused ones are H or OH. Square brackets hold non-standard residues; d marks the D form. Peptide text beside a SMILES is read from it. * marks the point of attachment. X3 = NC(=O)N[C@H](Cc1ccc2ccccc2c1)C(=O)*; dPhe(4-Cl) = N[C@H](Cc1ccc(Cl)cc1)C(=O)O; Desaminotyrosyl = O=C(CCc1ccc(O)cc1)*; d2Nal = N[C@H](Cc1ccc2ccccc2c1)C(=O)O; Lys(iPr) = CC(C)NCCCC[C@H](N)C(=O)O; NMeY = CN[C@@H](Cc1ccc(O)cc1)C(=O)O; Cyclopropanecarbonyl = O=C(C1CC1)*; dCit = NC(=O)NCCC[C@@H](N)C(=O)O; d3Pal = N[C@H](Cc1cccnc1)C(=O)O; Suc = O=C(CCC(=O)[*:2])[*:1]; Succinamoyl = NC(=O)CCC(=O)*; Nicotinoyl = O=C(c1cccnc1)*; X2 = O=C(CCc1ccc2ccccc2c1)*; Morpholide = C1CN(*)CCO1; PhAc = O=C(Cc1ccccc1)*; CO = O=C([*:1])[*:2]; Propionyl = CCC(=O)*; Butyryl = CCCC(=O)*; Glycolyl = O=C(CO)*; For = O=C*"}
{"compound": "CC(C)C[C@H](NC(=O)[C@@H](CCCCNC(=O)c1cccnc1)NC(=O)[C@H](Cc1ccc(O)cc1)N(C)C(=O)[C@H](CO)NC(=O)[C@@H](Cc1cccnc1)NC(=O)[C@@H](Cc1ccc(Cl)cc1)NC(=O)[C@@H](Cc1ccc2ccccc2c1)NC(=O)CCc1ccc(O)cc1)C(=O)N[C@@H](CCCCNC(C)C)C(=O)N1CCC[C@H]1C(=O)N[C@H](C)C(N)=O", "note": "[Example 2m, N-3-(4-Hydroxyphenyl)propionyl-D2Nal-D4ClPhe-D3Pal-Ser-NMeTyr-DLys(N-epsilon-Nicotinyl)-Leu-Lys(N-epsilon -Isopropyl)-Pro-DAlaNH2] (Desaminotyrosyl-[d2Nal][dPhe(4-Cl)][d3Pal]S[NMeY][dK](Nicotinoyl)L[Lys(iPr)]P[dA]-NH2)", "values": [{"measurement": "Kb", "value": 0.02, "unit": "nM"}]}
{"compound": "CC(C)C[C@H](NC(=O)[C@@H](CCCCNC(=O)c1cccnc1)NC(=O)[C@H](Cc1ccc(O)cc1)N(C)C(=O)[C@H](CO)NC(=O)[C@@H](Cc1cccnc1)NC(=O)[C@@H](Cc1ccc(Cl)cc1)NC(=O)[C@@H](Cc1ccc2ccccc2c1)NC(=O)CCc1ccc2ccccc2c1)C(=O)N[C@@H](CCCCNC(C)C)C(=O)N1CCC[C@H]1C(=O)N[C@H](C)C(N)=O", "note": "[Example 2o, N-3(2-Naphthyl)propionyl-D2Nal-D4ClPhe-D3Pal-Ser-NMeTyr-DLys(N-epsilon-Nicotinyl)-Leu-Lys(N-epsilon-Isopropyl) -Pro-DAlaNH2] (X2-[d2Nal][dPhe(4-Cl)][d3Pal]S[NMeY][dK](Nicotinoyl)L[Lys(iPr)]P[dA]-NH2)", "values": [{"measurement": "Kb", "value": 0.0794, "unit": "nM"}]}
{"compound": "CC(C)C[C@H](NC(=O)[C@@H](CCCCNC(=O)c1cccnc1)NC(=O)[C@H](Cc1ccc(O)cc1)N(C)C(=O)[C@H](CO)NC(=O)[C@@H](Cc1cccnc1)NC(=O)[C@@H](Cc1ccc(Cl)cc1)NC(=O)[C@@H](Cc1ccc2ccccc2c1)NC(=O)CCC(=O)O)C(=O)N[C@@H](CCCCNC(C)C)C(=O)N1CCC[C@H]1C(=O)N[C@H](C)C(N)=O", "note": "[Example 3, N-Succinyl-D2Nal-D4ClPhe-D3Pal-Ser-NMeTyr-DLys(Nicotinyl)-Leu-Lys(N-epsilon-lsopropyl.)-Pro-DAlaNH2] (Suc-[d2Nal][dPhe(4-Cl)][d3Pal]S[NMeY][dK](Nicotinoyl)L[Lys(iPr)]P[dA]-NH2)", "values": [{"measurement": "Kb", "value": 0.0513, "unit": "nM"}]}
{"compound": "CC(C)C[C@H](NC(=O)[C@@H](CCCNC(N)=O)NC(=O)[C@H](Cc1ccc(O)cc1)N(C)C(=O)[C@H](CO)NC(=O)[C@@H](Cc1cccnc1)NC(=O)[C@@H](Cc1ccc(Cl)cc1)NC(=O)[C@@H](Cc1ccc2ccccc2c1)NC(=O)CO)C(=O)N[C@@H](CCCNC(=N)N)C(=O)N1CCC[C@H]1C(=O)N[C@H](C)C(N)=O", "note": "[Example 4, N-Glycolyl-D2Nal-D4ClPhe-D3Pal-Ser-NMeTyr-DCit-Leu-Arg-Pro-DAlaNH2] (Glycolyl-[d2Nal][dPhe(4-Cl)][d3Pal]S[NMeY][dCit]LRP[dA]-NH2)", "values": [{"measurement": "Kb", "value": 0.00661, "unit": "nM"}]}
{"compound": "CC(C)C[C@H](NC(=O)[C@@H](CCCNC(N)=O)NC(=O)[C@H](Cc1ccc(O)cc1)N(C)C(=O)[C@H](CO)NC(=O)[C@@H](Cc1cccnc1)NC(=O)[C@@H](Cc1ccc(Cl)cc1)NC(=O)[C@@H](Cc1ccc2ccccc2c1)NC=O)C(=O)N[C@@H](CCCNC(=N)N)C(=O)N1CCC[C@H]1C(=O)N[C@H](C)C(N)=O", "note": "[Example 5a, N-Formyl-D2Nal-D4ClPhe-D3Pal-Ser-NMeTyr-DCit-Leu-Arg-Pro-DAlaNH2] (For-[d2Nal][dPhe(4-Cl)][d3Pal]S[NMeY][dCit]LRP[dA]-NH2)", "values": [{"measurement": "Kb", "value": 0.00447, "unit": "nM"}]}
{"compound": "CCC(=O)N[C@H](Cc1ccc2ccccc2c1)C(=O)N[C@H](Cc1ccc(Cl)cc1)C(=O)N[C@H](Cc1cccnc1)C(=O)N[C@@H](CO)C(=O)N(C)[C@@H](Cc1ccc(O)cc1)C(=O)N[C@H](CCCNC(N)=O)C(=O)N[C@@H](CC(C)C)C(=O)N[C@@H](CCCNC(=N)N)C(=O)N1CCC[C@H]1C(=O)N[C@H](C)C(N)=O", "note": "[Example 5b, N-Propionyl-D2Nal-D4ClPhe-D3Pal-Ser-NMeTyr-DCit-Leu-Arg-Pro-DAlaNH2] (Propionyl-[d2Nal][dPhe(4-Cl)][d3Pal]S[NMeY][dCit]LRP[dA]-NH2)", "values": [{"measurement": "Kb", "value": 0.00347, "unit": "nM"}]}
{"compound": "CCCC(=O)N[C@H](Cc1ccc2ccccc2c1)C(=O)N[C@H](Cc1ccc(Cl)cc1)C(=O)N[C@H](Cc1cccnc1)C(=O)N[C@@H](CO)C(=O)N(C)[C@@H](Cc1ccc(O)cc1)C(=O)N[C@H](CCCNC(N)=O)C(=O)N[C@@H](CC(C)C)C(=O)N[C@@H](CCCNC(=N)N)C(=O)N1CCC[C@H]1C(=O)N[C@H](C)C(N)=O", "note": "[Example 5c, N-Butyryl-D2Nal-D4ClPhe-D3Pal-Ser-NMeTyr-DCit-Leu-Arg-Pro-DAlaNH2] (Butyryl-[d2Nal][dPhe(4-Cl)][d3Pal]S[NMeY][dCit]LRP[dA]-NH2)", "values": [{"measurement": "Kb", "value": 0.00562, "unit": "nM"}]}
{"compound": "CC(C)C[C@H](NC(=O)[C@@H](CCCNC(N)=O)NC(=O)[C@H](Cc1ccc(O)cc1)N(C)C(=O)[C@H](CO)NC(=O)[C@@H](Cc1cccnc1)NC(=O)[C@@H](Cc1ccc(Cl)cc1)NC(=O)[C@@H](Cc1ccc2ccccc2c1)NC(=O)CCC(N)=O)C(=O)N[C@@H](CCCNC(=N)N)C(=O)N1CCC[C@H]1C(=O)N[C@H](C)C(N)=O", "note": "[Example 5d, N-Succinamyl-D2Nal-D4ClPhe-D3Pal-Ser-NMeTyr-DCit-Leu-Arg-Pro-DAlaNH2] (Succinamoyl-[d2Nal][dPhe(4-Cl)][d3Pal]S[NMeY][dCit]LRP[dA]-NH2)", "values": [{"measurement": "Kb", "value": 0.00646, "unit": "nM"}]}
{"compound": "CC(C)C[C@H](NC(=O)[C@@H](CCCNC(N)=O)NC(=O)[C@H](Cc1ccc(O)cc1)N(C)C(=O)[C@H](CO)NC(=O)[C@@H](Cc1cccnc1)NC(=O)[C@@H](Cc1ccc(Cl)cc1)NC(=O)[C@@H](Cc1ccc2ccccc2c1)NC(=O)C1CC1)C(=O)N[C@@H](CCCNC(=N)N)C(=O)N1CCC[C@H]1C(=O)N[C@H](C)C(N)=O", "note": "[Example 5e, N-Cyclopropylcarbonyl-D2Nal-D4ClPhe-D3PaI-Ser-NMeTyr-DCit-Leu-Arg-ProDAlaNH2] (Cyclopropanecarbonyl-[d2Nal][dPhe(4-Cl)][d3Pal]S[NMeY][dCit]LRP[dA]-NH2)", "values": [{"measurement": "Kb", "value": 0.0112, "unit": "nM"}]}
{"compound": "CC(C)C[C@H](NC(=O)[C@@H](CCCNC(N)=O)NC(=O)[C@H](Cc1ccc(O)cc1)N(C)C(=O)[C@H](CO)NC(=O)[C@@H](Cc1cccnc1)NC(=O)[C@@H](Cc1ccc(Cl)cc1)NC(=O)[C@@H](Cc1ccc2ccccc2c1)NC(=O)Cc1ccccc1)C(=O)N[C@@H](CCCNC(=N)N)C(=O)N1CCC[C@H]1C(=O)N[C@H](C)C(N)=O", "note": "[Example 5f, NPhenylacetyl-D2Nal-D4ClPhe-D3Pal-Ser-NMeTyr-DCit-Leu-Arg-Pro-DAlaNH2] (PhAc-[d2Nal][dPhe(4-Cl)][d3Pal]S[NMeY][dCit]LRP[dA]-NH2)", "values": [{"measurement": "Kb", "value": 0.0158, "unit": "nM"}]}
{"compound": "CC(C)C[C@H](NC(=O)[C@@H](CCCNC(N)=O)NC(=O)[C@H](Cc1ccc(O)cc1)N(C)C(=O)[C@H](CO)NC(=O)[C@@H](Cc1cccnc1)NC(=O)[C@@H](Cc1ccc(Cl)cc1)NC(=O)[C@@H](Cc1ccc2ccccc2c1)NC(=O)CCC(=O)O)C(=O)N[C@@H](CCCNC(=N)N)C(=O)N1CCC[C@H]1C(=O)N[C@H](C)C(N)=O", "note": "[Example 6, N-Succinyl-D2Nal-D4ClPhe-D3Pal-Ser-NMeTyr-DCit-Leu-Arg-Pro-DAlaNH2] (Suc-[d2Nal][dPhe(4-Cl)][d3Pal]S[NMeY][dCit]LRP[dA]-NH2)", "values": [{"measurement": "Kb", "value": 0.0398, "unit": "nM"}]}
{"compound": "CC(C)C[C@H](NC(=O)[C@@H](CCCNC(N)=O)NC(=O)[C@H](Cc1ccc(O)cc1)N(C)C(=O)[C@H](CO)NC(=O)[C@@H](Cc1cccnc1)NC(=O)[C@@H](Cc1ccc(Cl)cc1)NC(=O)[C@@H](Cc1ccc2ccccc2c1)NC(N)=O)C(=O)N[C@@H](CCCNC(=N)N)C(=O)N1CCC[C@H]1C(=O)N[C@H](C)C(N)=O", "note": "[Example 7, N:(Aminocarbonyl)-D2Nal-D4ClPhe-D3 Pal-Ser- NMeTyr-DCit-Leu-Arg-ProDAIaNH2] (X3-[dPhe(4-Cl)][d3Pal]S[NMeY][dCit]LRP[dA]-NH2)", "values": [{"measurement": "Kb", "value": 0.00603, "unit": "nM"}]}
{"compound": "CCNC(=O)N[C@H](Cc1ccc2ccccc2c1)C(=O)N[C@H](Cc1ccc(Cl)cc1)C(=O)N[C@H](Cc1cccnc1)C(=O)N[C@@H](CO)C(=O)N(C)[C@@H](Cc1ccc(O)cc1)C(=O)N[C@H](CCCNC(N)=O)C(=O)N[C@@H](CC(C)C)C(=O)N[C@@H](CCCNC(=N)N)C(=O)N1CCC[C@H]1C(=O)N[C@H](C)C(N)=O", "note": "[Example 8a, N-(Ethylaminocarbonyl)-D2Nal- D4ClPhe-D3Pal-Ser-NMeTyr-DCit-Leu-Arg-ProDAlaNH2] ({NHEt-CO}-[d2Nal][dPhe(4-Cl)][d3Pal]S[NMeY][dCit]LRP[dA]-NH2)", "values": [{"measurement": "Kb", "value": 0.0933, "unit": "nM"}]}
{"compound": "CC(C)C[C@H](NC(=O)[C@@H](CCCNC(N)=O)NC(=O)[C@H](Cc1ccc(O)cc1)N(C)C(=O)[C@H](CO)NC(=O)[C@@H](Cc1cccnc1)NC(=O)[C@@H](Cc1ccc(Cl)cc1)NC(=O)[C@@H](Cc1ccc2ccccc2c1)NC(=O)N1CCOCC1)C(=O)N[C@@H](CCCNC(=N)N)C(=O)N1CCC[C@H]1C(=O)N[C@H](C)C(N)=O", "note": "[Example 8b, N-(Morpholinocarbonyl)-D2Nal-D4ClPhe-D 3Pal- Ser-NMeTyr-DCit-Leu-Arg-Pro-DAlaNH2] ({Morpholide-CO}-[d2Nal][dPhe(4-Cl)][d3Pal]S[NMeY][dCit]LRP[dA]-NH2)", "values": [{"measurement": "Kb", "value": 0.02, "unit": "nM"}]}
